Laboratory results as given in US10654845B2, “2-(het)aryl-substituted fused bicyclic heterocycle derivatives as pesticides” (BAYER CROPSCIENCE AKTIENGESELLSCHAFT, priority 2015, dated 2020).

How the values were obtained:
Ctenocephalides felis [1] = experiment: Ctenocephalides felis oral test; format: in vivo; conditions: 100 ppm, after 2 days
Protocol: Ctenocephalides felis-Oral Test
(§1) Solvent: dimethyl sulphoxide
To produce a suitable preparation of active compound, 10 mg of active compound are mixed with 0.5 ml of dimethyl sulphoxide. Dilution with citrated cattle blood gives the desired concentration.
About 20 unfed adult cat fleas (Ctenocephalides felis) are placed into a chamber which is closed at the top and bottom with gauze. A metal cylinder whose bottom end is closed with parafilm is placed onto the chamber. The cylinder contains the blood/active compound preparation, which can be imbibed by the fleas through the parafilm membrane.
After 2 days, the kill in % is determined. 100% means that all of the fleas have been killed; 0% means that none of the fleas have been killed.

Boophilus microplus = Boophilus microplus injection test; format: in vivo; conditions: 20 μg/animal, assessed after 7 days
Protocol: Boophilus microplus-Injection Test
as §1
To produce a suitable preparation of active compound, 10 mg of active compound are mixed with 0.5 ml of solvent and the concentrate is diluted with solvent to the desired concentration.
1 μl of the active compound solution is injected into the abdomen of 5 engorged adult female cattle ticks (Boophilus microplus). The animals are transferred into dishes and kept in a climate-controlled room.
Efficacy is assessed after 7 days by laying of fertile eggs. Eggs which are not visibly fertile are stored in a climate-controlled cabinet until the larvae hatch after about 42 days. An efficacy of 100% means that none of the ticks has laid any fertile eggs; 0% means that all the eggs are fertile.

Myzus persicae = Myzus persicae spray test (bell pepper plants); format: in vivo; conditions: 100 ppm, after 6 days
Protocol: Myzus persicae Spray Test
Solvent: 7 parts by weight of dimethylformamide
Emulsifier: alkylaryl polyglycol ether
To produce a suitable preparation of active compound, 1 part by weight of active compound is dissolved using the stated parts by weight of solvent and made up with water containing an emulsifier concentration of 1000 ppm until the desired concentration is attained. To produce further test concentrations, the preparation is diluted with emulsifier-containing water. If the addition of ammonium salts or/and penetrants is required, these are each added in a concentration of 1000 ppm to the formulation solution.
Bell pepper plants (Capsicum annuum) severely infested with the green peach aphid (Myzus persicae) are treated by spraying with the active compound preparation in the desired concentration.
After 6 days, the kill in % is determined. 100% means that all of the aphids have been killed; 0% means that none of the aphids have been killed.

Phaedon cochleariae = Phaedon cochleariae spray test; format: in vivo; conditions: 500 g/ha, after 7 days, beetle larvae killed
Outline: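 Compound dissolved in acetone/dimethylformamide and diluted with water containing 1000 ppm alkylaryl polyglycol ether emulsifier to test concentrations, applied as a spray. Efficacy (% beetle larvae killed) assessed after 7 days.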

Ctenocephalides felis [2] = experiment: Ctenocephalides felis in vitro contact tests with adult cat fleas; format: in vivo; conditions: 5 μg/cm^2 (500 g/ha), after 48 h
Protocol: Ctenocephalides felis—In Vitro Contact Tests with Adult Cat Fleas
For the coating of the test tubes, 9 mg of active compound are first dissolved in 1 ml of acetone p.a. and then diluted to the desired concentration with acetone p.a. 250 μl of the solution are distributed homogeneously on the inner walls and the base of a 25 ml test tube by turning and rocking on an orbital shaker (rocking rotation at 30 rpm for 2 h). With 900 ppm active compound solution and internal surface 44.7 cm^2, given homogeneous distribution, an area-based dose of 5 μg/cm^2 is achieved.
After the solvent has evaporated off, the tubes are populated with 5-10 adult cat fleas (Ctenocephalides felis), sealed with a perforated plastic lid and incubated in a horizontal position at room temperature and ambient humidity. After 48 h, efficacy is determined. To this end, the test tubes are stood upright and the fleas are knocked to the base of the tube. Fleas which remain motionless at the base or move in an uncoordinated manner are considered to be dead or moribund.
100% efficacy means that all the fleas were dead or moribund. 0% efficacy means that no fleas were harmed.

Lucilia cuprina = Lucilia cuprina test; format: in vivo; conditions: 100 ppm, after 2 days, L1 larvae
Protocol: as §1
(§2) To produce a suitable preparation of active compound, 10 mg of active compound are mixed with 0.5 ml of dimethyl sulphoxide, and the concentrate is diluted with water to the desired concentration.
About 20 L1 larvae of the Australian sheep blowfly (Lucilia cuprina) are transferred into a test vessel containing minced horsemeat and the active compound preparation of the desired concentration.
After 2 days, the kill in % is determined. 100% means that all the larvae have been killed; 0% means that no larvae have been killed.

[3] = log P by HPLC on reversed-phase column (C18), EEC Directive 79/831 Annex V.A8; conditions: pH 2.7
Excerpt: Called log P (HCOOH) in the table.
Called log P (neutral) in the table.

Musca domestica = Musca domestica test; format: in vivo; conditions: 100 ppm, after 2 days, adult houseflies
Protocol: as §1, §2
Vessels containing a sponge treated with sugar solution and the active compound preparation of the desired concentration are populated with 10 adult houseflies (Musca domestica).
After 2 days, the kill in % is determined. 100% means that all of the flies have been killed; 0% means that none of the flies have been killed.

logP-acidic [3]: 2.43
Compound: CCS(=O)(=O)c1ccc(NC(=O)C2CC2)nc1-c1nc2cc(C(F)(F)F)ncc2n1C [Example 22]
kill in % (Ctenocephalides felis [1]): 100%
efficacy (laying of fertile eggs) (Boophilus microplus): 80%
kill in % (Myzus persicae): 100%
efficacy in % (Phaedon cochleariae): 100%
efficacy (dead or moribund fleas) (Ctenocephalides felis [2]): 100%
kill in % (Lucilia cuprina): 90%
kill in % (Musca domestica): 100%
